Measurements published in BindingDB's records for doi:10.1016/j.bmcl.2011.09.133 (Genzyme, 2011).

Assay: Antagonist activity against human CCR5 assessed as inhibition of HIV1 gp120-induced cell-cell fusion between human HeLa P4/R5 cells and CHO-tat10 cells expressing HIV-1JRFL viral envolop protein after 20 hrs by beta-galactosidase reporter gene assay

Row | Compound | IC50
1 | COc1ccc(N(Cc2cnccc2C)C2CCN([C@H](C)CCNC(=O)c3c(C)cncc3C)CC2)cc1 | 7 nM
2 | CC(CCNC(=O)c1c(Cl)cncc1Cl)N1CCC(N(Cc2cccc(C#N)c2)c2ccc(OC(F)(F)F)cc2)CC1 (stereo unspecified) | 3 nM
3 | COc1ccc(N(Cc2cnccc2C)C2CCN([C@H](C)CCNC(=O)c3c(C)cc(F)nc3C)CC2)cc1 | 0.3 nM
4 | COc1ccc(N(Cc2cnccc2C)C2CCN([C@H](C)CCNC(=O)c3c(C)cc(Cl)nc3C)CC2)cc1 | 0.2 nM
5 | COc1ccc(N(Cc2ccccc2)C2CCN(C(C)CCNC(=O)c3c(Cl)cncc3Cl)CC2)cc1 (stereo unspecified) | 50 nM
6 | Cc1ccncc1CN(c1ccccc1)C1CCN([C@H](C)CCNC(=O)c2c(C)cc(C#N)nc2C)CC1 | 7 nM
7 | CC(CCNC(=O)c1c(Cl)cncc1Cl)N1CCC(N(Cc2ccccc2)c2ccc(OC(F)(F)F)cc2)CC1 (stereo unspecified) | 26 nM
8 | Cc1ccncc1CN(c1ccc(N2CCOCC2)cc1)C1CCN([C@H](C)CCNC(=O)c2c(C)cc(Cl)nc2C)CC1 | 1590 nM
9 | CC(CCNC(=O)c1c(Cl)cncc1Cl)N1CCC(N(Cc2ccccc2)c2ccc(Oc3ccc(C(=O)O)cc3)cc2)CC1 (stereo unspecified) | 11 nM
10 | COC(=O)c1ccc(N(Cc2ccccc2)C2CCN(C(C)CCNC(=O)c3c(Cl)cncc3Cl)CC2)cc1 (stereo unspecified) | 90 nM
11 | Cc1ccncc1CN(c1ccc(OCC(N)=O)cc1)C1CCN([C@H](C)CCNC(=O)c2c(C)cc(C#N)nc2C)CC1 | 0.98 nM
12 | Cc1ccncc1CN(c1ccc([S+](C)[O-])cc1)C1CCN([C@H](C)CCNC(=O)c2c(C)ncnc2C)CC1 (stereo partly specified) | 130 nM
13 | COCCOc1ccc(N(Cc2cnccc2C)C2CCN([C@H](C)CCNC(=O)c3c(C)cc(Cl)nc3C)CC2)cc1 | 0.6 nM
14 | CC(CCNC(=O)c1c(Cl)cncc1Cl)N1CCC(N(Cc2ccccc2)c2ccc(C(=O)N(C)C)cc2)CC1 (stereo unspecified) | 116 nM
15 | CC(CCNC(=O)c1c(Cl)cncc1Cl)N1CCC(N(Cc2cccc(C#N)c2)c2ccc(C#N)cc2)CC1 (stereo unspecified) | 12 nM
16 | COCCOc1ccc(N(Cc2cnccc2C)C2CCN([C@H](C)CCNC(=O)c3c(C)cc(F)nc3C)CC2)cc1 | 1.3 nM
17 | COc1ccc(N(Cc2cnccc2C)C2CCN([C@@H](C)CCNC(=O)c3c(C)cc(Cl)nc3C)CC2)cc1 | 40 nM
18 | COc1ccc(N(Cc2cnccc2C)C2CCN([C@H](C)CCNC(=O)c3c(C)ccnc3C)CC2)cc1 | 2.4 nM

Row | Compound | IC50
19 | COc1ccc(N(Cc2cccnc2)C2CCN([C@H](C)CCNC(=O)c3c(C)cc(Cl)nc3C)CC2)cc1 | 1.5 nM
20 | CC(CCNC(=O)c1c(Cl)cncc1Cl)N1CCC(N(Cc2ccccc2)c2ccc(C(F)(F)F)cc2)CC1 (stereo unspecified) | 34 nM
21 | COc1ccc(N(Cc2cnccc2C)C2CCN([C@H](C)CCNC(=O)c3c(C)ccnc3Cl)CC2)cc1 | 0.7 nM
22 | CC(CCNC(=O)c1c(Cl)cncc1Cl)N1CCC(N(Cc2ccccc2)c2ccc(C#N)cc2)CC1 (stereo unspecified) | 19 nM
23 | COCCOc1ccc(N(Cc2cnccc2C)C2CCN([C@H](C)CCNC(=O)c3c(C)cc(C#N)nc3C)CC2)cc1 | 0.8 nM
24 | CC(CCNC(=O)c1c(Cl)cncc1Cl)N1CCC(N(Cc2ccccc2)c2ccc(Br)cc2)CC1 (stereo unspecified) [N-(3-(4-(benzyl(4-bromophenyl)amino)piperidin-1-yl)butyl)-3,5-dichloroisonicotinamide] | 49 nM
25 | COc1ccc(N(Cc2cnccc2C)C2CCN([C@H](C)CCNC(=O)c3c(C)cc(C#N)nc3C)CC2)cc1 | 0.3 nM
26 | CC(CCNC(=O)c1c(Cl)cncc1Cl)N1CCC(N(Cc2cccc(C#N)c2)c2ccc(Br)cc2)CC1 (stereo unspecified) | 8 nM
27 | COc1ccc(N(Cc2cccc(C#N)n2)C2CCN([C@H](C)CCNC(=O)c3c(C)cc(C#N)nc3C)CC2)cc1 | 0.3 nM
28 | COc1ccc(N(Cc2cccc(C#N)c2)C2CCN(C(C)CCNC(=O)c3c(Cl)cncc3Cl)CC2)cc1 (stereo unspecified) | 2 nM
29 | COc1cccc(CN(c2ccc(Br)cc2)C2CCN(C(C)CCNC(=O)c3c(Cl)cncc3Cl)CC2)c1 (stereo unspecified) | 387 nM
30 | CC(CCNC(=O)c1c(Cl)cncc1Cl)N1CCC(N(Cc2cccc(Cl)c2)c2ccc(Br)cc2)CC1 (stereo unspecified) | 30 nM
31 | COc1ccc(N(Cc2cccc(C#N)n2)C2CCN([C@H](C)CCNC(=O)c3c(C)cc(Cl)nc3C)CC2)cc1 | 0.3 nM
32 | COc1ccc(N(Cc2cccc(C#N)n2)C2CCN([C@H](C)CCNC(=O)c3c(C)cc(F)nc3C)CC2)cc1 | 0.7 nM
33 | COc1ccc(N(Cc2cccnc2)C2CCN([C@H](C)CCNC(=O)c3c(C)cc(F)nc3C)CC2)cc1 | 1.6 nM
34 | CC(CCNC(=O)c1c(Cl)cncc1Cl)N1CCC(N(Cc2cccc(C#N)c2)c2ccc(C(F)(F)F)cc2)CC1 (stereo unspecified) | 3 nM
35 | COc1ccc(N(Cc2cnccc2C)C2CCN([C@H](C)CCNC(=O)c3cnc(Cl)cc3C)CC2)cc1 | 12.3 nM
36 | COc1ccc(N(Cc2cnccc2C)C2CCN([C@H](C)CCNC(=O)c3c(C)cc(C(=O)NC(C)C)nc3C)CC2)cc1 | 0.09 nM
